Reference: patent US20180194762A1 (Pharmacyclics LLC, priority 2017, published 2018)
Read-outs that look alike come from different tables or passages of the source.

Assays:
Format in all cases: biochemical
[1] = biological target: T1, Btk (Homo sapiens, UniProt Q06187); experiment: Btk in vitro inhibitory activity (one of Method A TR-FRET, Method B electrophoretic mobility shift, Method C radiometric filter binding)
T1 construct: purified from insect cells as a full-length construct containing a N-terminal 6X-His tag; His6 (N); made in house; host or cells: insect cells (Method C)
Summary of the method: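 Three alternative formats were used. A radiometric filter-binding read used 8 nM full-length His-BTK with 0.2 mg/mL poly(Glu-Tyr) 4:1 (C); microfluidic separation of 1 μM FAM-peptide by 1 nM BTK gave IC50 from 12-point curves (B); TR-FRET at Km ATP, 0.5 nM Btk, gave Ki(app)-derived IC50 (A).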

[2] = biological target: T2, TEC (Homo sapiens, UniProt P42680); experiment: Inhibition of a panel of kinases (in vitro HotSpot kinase assay, 33P-ATP, 1 μM ATP); settings: for IC50: HotSpot kinase assay, 1 μM ATP; for TEC/Btk: ratio of TEC IC50 to Btk IC50 (selectivity)
T2 sequence (P42680 1-631): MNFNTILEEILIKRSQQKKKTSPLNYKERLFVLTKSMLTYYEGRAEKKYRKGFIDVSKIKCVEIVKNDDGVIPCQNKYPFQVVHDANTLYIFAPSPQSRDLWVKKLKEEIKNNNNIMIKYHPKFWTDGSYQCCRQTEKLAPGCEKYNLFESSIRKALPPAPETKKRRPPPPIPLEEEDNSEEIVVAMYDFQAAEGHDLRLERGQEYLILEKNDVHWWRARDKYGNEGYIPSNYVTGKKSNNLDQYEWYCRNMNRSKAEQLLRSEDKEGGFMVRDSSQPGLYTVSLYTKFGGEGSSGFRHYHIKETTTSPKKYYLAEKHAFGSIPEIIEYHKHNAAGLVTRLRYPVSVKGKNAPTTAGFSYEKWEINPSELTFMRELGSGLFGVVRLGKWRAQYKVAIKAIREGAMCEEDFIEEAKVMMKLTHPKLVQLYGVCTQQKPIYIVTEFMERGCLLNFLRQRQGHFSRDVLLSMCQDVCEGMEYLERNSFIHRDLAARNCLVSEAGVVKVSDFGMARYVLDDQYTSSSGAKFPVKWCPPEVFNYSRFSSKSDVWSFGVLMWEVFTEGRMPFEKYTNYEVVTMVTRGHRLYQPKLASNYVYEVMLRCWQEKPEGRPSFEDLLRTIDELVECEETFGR
Summary of the method: (§1)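 At 1 μM ATP spiked with 33P-ATP, substrate phosphorylation by the purified enzymes gives the extent of inhibition.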

[3] = biological target: T3, panel of kinases (Homo sapiens, UniProt P51813); experiment: Inhibition of a panel of kinases (in vitro HotSpot kinase assay, 33P-ATP, 1 μM ATP), other kinases; settings: BMX wild-type, read-out: BMX-WT IC50
T3 sequence (P51813 1-675): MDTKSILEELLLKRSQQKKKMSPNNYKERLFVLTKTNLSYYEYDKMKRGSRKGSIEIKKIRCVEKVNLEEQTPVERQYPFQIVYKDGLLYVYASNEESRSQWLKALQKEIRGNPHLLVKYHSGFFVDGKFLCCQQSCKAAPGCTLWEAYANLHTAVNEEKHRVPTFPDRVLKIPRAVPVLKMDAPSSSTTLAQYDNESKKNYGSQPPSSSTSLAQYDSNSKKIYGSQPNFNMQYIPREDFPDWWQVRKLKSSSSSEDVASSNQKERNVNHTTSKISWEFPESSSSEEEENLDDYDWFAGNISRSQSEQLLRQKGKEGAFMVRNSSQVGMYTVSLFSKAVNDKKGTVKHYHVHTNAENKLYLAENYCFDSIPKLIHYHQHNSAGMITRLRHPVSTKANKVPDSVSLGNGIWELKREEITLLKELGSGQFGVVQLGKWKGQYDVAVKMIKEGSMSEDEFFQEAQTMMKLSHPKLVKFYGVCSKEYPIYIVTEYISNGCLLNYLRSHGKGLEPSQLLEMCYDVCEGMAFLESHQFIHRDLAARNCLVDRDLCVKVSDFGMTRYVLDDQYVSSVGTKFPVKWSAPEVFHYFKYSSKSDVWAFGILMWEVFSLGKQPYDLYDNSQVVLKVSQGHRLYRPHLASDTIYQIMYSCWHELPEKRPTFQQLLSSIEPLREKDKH
Summary of the method: as §1

[4] = method is one of A, B or C, not stated which, read-out: IC50 values against Btk
[5] = wild-type Btk, read-out: Btk-WT IC50

T1 sequence (Q06187 whole entry): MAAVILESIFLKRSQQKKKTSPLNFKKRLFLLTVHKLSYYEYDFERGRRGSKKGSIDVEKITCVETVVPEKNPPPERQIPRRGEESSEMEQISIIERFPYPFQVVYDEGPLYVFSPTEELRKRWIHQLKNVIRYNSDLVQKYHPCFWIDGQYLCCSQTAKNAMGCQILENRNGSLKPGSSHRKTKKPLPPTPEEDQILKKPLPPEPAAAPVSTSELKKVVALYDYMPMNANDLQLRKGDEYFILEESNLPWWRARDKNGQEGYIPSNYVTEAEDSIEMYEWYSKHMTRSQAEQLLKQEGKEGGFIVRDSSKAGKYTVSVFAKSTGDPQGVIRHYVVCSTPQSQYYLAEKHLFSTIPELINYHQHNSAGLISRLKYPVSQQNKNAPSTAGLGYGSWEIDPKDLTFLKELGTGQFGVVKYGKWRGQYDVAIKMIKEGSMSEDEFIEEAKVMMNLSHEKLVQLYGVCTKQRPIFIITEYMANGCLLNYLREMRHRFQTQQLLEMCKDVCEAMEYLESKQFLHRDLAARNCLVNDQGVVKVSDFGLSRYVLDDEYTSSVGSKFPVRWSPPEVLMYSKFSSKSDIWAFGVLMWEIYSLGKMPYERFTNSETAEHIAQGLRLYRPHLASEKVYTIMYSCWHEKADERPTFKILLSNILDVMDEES

Structure (SMILES) | IC50 [1, 4] | IC50 [1, 5] | IC50 [2] | TEC/Btk [2] | IC50 [3]
CC(C)(C)c1noc(C(=O)NCc2ccc(-c3ccnc4[nH]nc(N[C@@H]5CCNC5)c34)cc2F)n1 [Example 79, 3-tert-butyl-N-{[2-fluoro-4-(3-{[(3R)-pyrrolidin-3-yl]amino}-1H-pyrazolo[3,4-b]pyridin-4-yl)phenyl]methyl}-1,2,4-oxadiazole-5-carboxamide] | < 10 nM | 6.27 nM | 1730 nM | 276 | 1790 nM
C=CC(=O)N1CC[C@@H](Nc2n[nH]c3nccc(-c4ccc(CNC(=O)c5cnn(C(C)(C)C)c5)c(F)c4)c23)C1 [Example 80, 1-tert-butyl-N-{[2-fluoro-4-(3-{[(3R)-1-(prop-2-enoyl)pyrrolidin-3-yl]amino}-1H-pyrazolo[3,4-b]pyridin-4-yl)phenyl]methyl}-1H-pyrazole-4-carboxamide] | < 10 nM | 0.129 nM | 57 nM | 440 | 76 nM
C=CC(=O)N1CC[C@@H](Nc2n[nH]c3nccc(-c4ccc(CNC(=O)c5nnc(C(C)(C)C)o5)c(F)c4)c23)C1 [Example 81, 5-tert-butyl-N-{[2-fluoro-4-(3-{[(3R)-1-(prop-2-enoyl)pyrrolidin-3-yl]amino}-1H-pyrazolo[3,4-b]pyridin-4-yl)phenyl]methyl}-1,3,4-oxadiazole-2-carboxamide] | < 10 nM | 0.227 nM | 131 nM | 577 | 89 nM
C=CC(=O)N1CC[C@@H](Nc2n[nH]c3nccc(-c4ccc(CNC(=O)c5nc(C(C)(C)C)n[nH]5)c(F)c4)c23)C1 [Example 82, 3-tert-butyl-N-{[2-fluoro-4-(3-{[(3R)-1-(prop-2-enoyl)pyrrolidin-3-yl]amino}-1H-pyrazolo[3,4-b]pyridin-4-yl)phenyl]methyl}-1H-1,2,4-triazole-5-carboxamide] |  | 30.6 nM | 357 nM | 12 | 113 nM
C=CC(=O)N1CC[C@@H](Nc2n[nH]c3nccc(-c4ccc(CNC(=O)c5nc(C(C)(C)C)no5)c(F)c4)c23)C1 [Example 83, 3-tert-butyl-N-{[2-fluoro-4-(3-{[(3R)-1-(prop-2-enoyl)pyrrolidin-3-yl]amino}-1H-pyrazolo[3,4-b]pyridin-4-yl)phenyl]methyl}-1,2,4-oxadiazole-5-carboxamide] | < 10 nM | 0.056 nM | 28 nM | 493 | 52 nM
C=CC(=O)N1CC[C@@H](Nc2n[nH]c3nccc(-c4ccc(CNC(=O)c5noc(CC)n5)c(F)c4)c23)C1 [Example 84, 5-ethyl-N-{[2-fluoro-4-(3-{[(3R)-1-(prop-2-enoyl)pyrrolidin-3-yl]amino}-1H-pyrazolo[3,4-b]pyridin-4-yl)phenyl]methyl}-1,2,4-oxadiazole-3-carboxamide] | < 10 nM | 7.83 nM | 361 nM | 46 | 87 nM
C=CC(=O)N1CCC[C@@H](Nc2n[nH]c3nccc(-c4ccc(CNC(=O)c5noc(C(C)(C)C)n5)c(F)c4)c23)C1 [Example 85, 5-tert-butyl-N-{[2-fluoro-4-(3-{[(3R)-1-(prop-2-enoyl)piperidin-3-yl]amino}-1H-pyrazolo[3,4-b]pyridin-4-yl)phenyl]methyl}-1,2,4-oxadiazole-3-carboxamide] | < 10 nM | 0.19 nM | 110 nM | 579 | 115 nM
C=CC(=O)N1CC[C@@H](Nc2n[nH]c3nccc(-c4ccc(C5(NC(=O)c6nc(C(C)(C)C)no6)CC5)cc4)c23)C1 [Example 86, 3-tert-butyl-N-{1-[4-(3-{[(3R)-1-(prop-2-enoyl)pyrrolidin-3-yl]amino}-1H-pyrazolo[3,4-b]pyridin-4-yl)phenyl]cyclopropyl}-1,2,4-oxadiazole-5-carboxamide] | < 10 nM | 0.242 nM | 213 nM | 880 | 218 nM
C=CC(=O)N1CC[C@@H](Nc2n[nH]c3nccc(-c4ccc(CCNC(=O)c5noc(C(C)(C)C)n5)c(F)c4)c23)C1 [Example 87, 5-tert-butyl-N-{2-[2-fluoro-4-(3-{[(3R)-1-(prop-2-enoyl)pyrrolidin-3-yl]amino}-1H-pyrazolo[3,4-b]pyridin-4-yl)phenyl]ethyl}-1,2,4-oxadiazole-3-carboxamide] | < 10 nM | 1.43 nM | 685 nM | 479 | 276 nM
C=CC(=O)N1CC[C@@H](Nc2n[nH]c3nccc(-c4cc(F)cc(CNC(=O)c5noc(C(C)(C)C)n5)c4)c23)C1 [Example 88, 5-tert-butyl-N-{[3-fluoro-5-(3-{[(3R)-1-(prop-2-enoyl)pyrrolidin-3-yl]amino}-1H-pyrazolo[3,4-b]pyridin-4-yl)phenyl]methyl}-1,2,4-oxadiazole-3-carboxamide] |  | 287 nM | 2380 nM | 8 | 713 nM
C=CC(=O)N1CC[C@@H](Nc2n[nH]c3nccc(-c4cc(F)cc(CNC(=O)c5ccc(C(C)(C)C)cc5)c4)c23)C1 [Example 89, 4-tert-butyl-N-{[3-fluoro-5-(3-{[(3R)-1-(prop-2-enoyl)pyrrolidin-3-yl]amino}-1H-pyrazolo[3,4-b]pyridin-4-yl)phenyl]methyl}benzamide] |  | > 10000 nM | 3280 nM | >100 | 510 nM
CC(C)(C)c1nc(C(=O)NCc2ccc(-c3ccnc4[nH]nc(N[C@@H]5CCCN(C=O)C5)c34)cc2F)no1 [Example 90, 5-tert-butyl-N-{[2-fluoro-4-(3-{[(3R)-1-formylpiperidin-3-yl]amino}-1H-pyrazolo[3,4-b]pyridin-4-yl)phenyl]methyl}-1,2,4-oxadiazole-3-carboxamide] | < 10 nM | 9.44 nM | 2250 nM | 238 | 2620 nM
CC(=O)N1CC[C@H](Nc2n[nH]c3nccc(-c4ccc(CNC(=O)c5noc(C(C)(C)C)n5)c(F)c4)c23)C1 [Example 92, N-{[4-(3-{[(3S)-1-acetylpyrrolidin-3-yl]amino}-1H-pyrazolo[3,4-b]pyridin-4-yl)-2-fluorophenyl]methyl}-5-tert-butyl-1,2,4-oxadiazole-3-carboxamide] |  | 13.7 nM | 6920 nM | 505 | 7600 nM
CC(C)(C)c1nc(C(=O)NCc2ccc(-c3ccnc4[nH]nc(N[C@H]5CCN(C=O)C5)c34)cc2F)no1 [Example 93, 5-tert-butyl-N-{[2-fluoro-4-(3-{[(3S)-1-formylpyrrolidin-3-yl]amino}-1H-pyrazolo[3,4-b]pyridin-4-yl)phenyl]methyl}-1,2,4-oxadiazole-3-carboxamide] |  | 11.7 nM | 3770 nM | 322 | 3340 nM
CC1(C(=O)N2CC[C@H](Nc3n[nH]c4nccc(-c5ccc(CNC(=O)c6noc(C(C)(C)C)n6)c(F)c5)c34)C2)COC1 [Example 94, 5-tert-butyl-N-{[2-fluoro-4-(3-{[(3S)-1-(3-methyloxetane-3-carbonyl)pyrrolidin-3-yl]amino}-1H-pyrazolo[3,4-b]pyridin-4-yl)phenyl]methyl}-1,2,4-oxadiazole-3-carboxamide] |  | 25.3 nM | > 10000 nM | >100 | > 10000 nM
